Data published in patent US4318916A, “Antibiotic PS-5 and derivatives having β-lactamase inhibitory activity and production thereof” (Sanraku-Ocean Co., Ltd., priority 1977, dated 1982).
In brackets after ≈: the same amount, converted by molar mass. Like-named read-outs stand apart in the source and are kept apart here.

Legend:
[1] = tested on: Alcaligenes faecalis B-326; assay: MIC by broth dilution (Table 13); assay type: cell-based; details: B326, 20 h
Procedure: (§1) The MIC (minimum inhibitory concentration) values of the compound were determined on various pathogenic microorganisms including several resistant strains, utilizing the broth dilution method in BRAIN HEART INFUSION BROTH `Eiken` (EIKEN CHEMICAL CO., LTD.).
(§2) The results were read after incubation at 35° C. for 20 hours. The minimum inhibitory concentration (MIC) values means the lowest concentration unit of the tritylation product of the antibiotic PS-5 was no growth of the corresponding microorganism was observed under the above described conditions. As the control antibiotics,the solutions of ampicillin and cephaloridine were prepared in BRAIN HEART INFUSION BROTH `Eiken` (pH 7.0) at a concentration of 100 μg/ml and treated same as the test compound of the present invention.

Citrobacter freundii E-9 [2] = assay: MIC by broth dilution (Table 13); assay type: cell-based; details: E9, 20 h
Procedure: as §1, §2

[3] = tested on: Diplococcus pneumoniae Type III; assay: MIC by broth dilution (Table 13); assay type: cell-based; details: Streptococcus pneumoniae, 20 h
Procedure: as §1, §2

Enterobacter sp. E-8 [4] = assay: MIC by broth dilution (Table 13); assay type: cell-based; details: SP.E8, 20 h
Procedure: as §1, §2

Escherichia coli K12 = assay: MIC by broth dilution (Table 13); assay type: cell-based; details: 20 h
Procedure: as §1, §2

[5] = tested on: Klebsiella pneumoniae K-2; assay: MIC by broth dilution (Table 13); assay type: cell-based; details: K2, 20 h
Procedure: as §1, §2

Proteus mirabilis P-6 [6] = assay: MIC by broth dilution (Table 13); assay type: cell-based; details: P6, 20 h
Procedure: as §1, §2

Proteus rettgeri P-7 [7] = assay: MIC by broth dilution (Table 13); assay type: cell-based; details: Providencia rettgeri, P7, 20 h
Procedure: as §1, §2

Proteus vulgaris P-5 [8] = assay: MIC by broth dilution (Table 13); assay type: cell-based; details: P5, 20 h
Procedure: as §1, §2

[9] = tested on: Pseudomonas aeruginosa P-1; assay: MIC by broth dilution (Table 13); assay type: cell-based; details: P1, 20 h
Procedure: as §1, §2

Sarcina lutea S-19 = assay: MIC by broth dilution (Table 13); assay type: cell-based; details: Micrococcus luteus, S19, 20 h
Procedure: as §1, §2

[10] = tested on: Staphylococcus aureus FDA 209p; assay: MIC by broth dilution (Table 13); assay type: cell-based; details: FDA209P, 20 h
Procedure: as §1, §2

[11] = tested on: Staphylococcus aureus Smith; assay: MIC by broth dilution (Table 13); assay type: cell-based; details: 20 h
Procedure: as §1, §2

[12] = tested on: Streptococcus pyogenes NY-5; assay: MIC by broth dilution (Table 13); assay type: cell-based; details: NY5, 20 h
Procedure: as §1, §2

male ddy mice = assay type: in vivo; details: 500 mg/kg intraperitoneally
Procedure: An aqueous solution of the antibiotic PS-5 sodium salt was intraperitoneally administered to male ddy mice (Shizuoka) at the dose of 500 mg/kg.

Citrobacter freundii E-9 [13] = assay: MIC by broth dilution (Table 8); assay type: cell-based; details: E9, 20 h, read-out: Minimum inhibitory concentration
Procedure: (§3) The MIC values of antibiotic PS-5 sodium salt were determined on various pathogenic microorganisms including resistant strains by the broth dilution method utilizing the BRAIN HEART INFUSION BROTH `Eiken` (EIKEN CHEMICAL CO., LTD.).
(§4) The antibiotic PS-5 sodium salt was dissolved in BRAIN HEART INFUSION BROTH `Eiken` (EIKEN CHEMICAL CO., LTD.) (pH 7.0) at concentration in the range of 5-50 μg/ml, from which appropriate dilution series were made in the same liquid medium. The microorganisms listed in Table 8 were cultivated for 18 hours in BRAIN HEART INFUSION BROTH `Eiken` at 28° C. and inoculated into the said dilution series of antibiotic PS-5 at a final inoculum size of 1×10^5 cells/ml. The cultures were allowed to stand at 35° C. for 20 hours, and then the growth of the microorganisms was read at each dilution of antibiotic PS-5. The minimum inhibitory concentration (MIC) represents the smallest concentration of the antibiotic PS-5 (sodium salt) where no propagation of the relevant microorganism was visually confirmed. As the controls, two known beta-lactam antibiotics, cephaloridine and cefoxitin were dissolved in brain heart infustion broth at pH 7.0 at concentrations ranging from 1 μg/ml to 100 μ g/ml and then diluted to make several dilution series in the above mentioned liquid medium. These samples were treated as described above for the MIC determinations. In addition to the MIC values of antibiotic PS-5, those of cephaloridine and cefoxitin are included for reference.

[14] = tested on: Enterobacter aerogenes E-19; assay: MIC by broth dilution (Table 8); assay type: cell-based; details: Klebsiella aerogenes, E19, 20 h, betalactamase producer, read-out: Minimum inhibitory concentration
Procedure: as §3, §4

[15] = tested on: Enterobacter cloacae E-16; assay: MIC by broth dilution (Table 8); assay type: cell-based; details: E16, 20 h, betalactamase producer, read-out: Minimum inhibitory concentration
Procedure: as §3, §4

Enterobacter sp. E-8 [16] = assay: MIC by broth dilution (Table 8); assay type: cell-based; details: SP.E8, 20 h, read-out: Minimum inhibitory concentration
Procedure: as §3, §4

Escherichia coli K 12 = assay: MIC by broth dilution (Table 8); assay type: cell-based; details: K12, 20 h, read-out: Minimum inhibitory concentration
Procedure: as §3, §4

[17] = tested on: Klebsiella pneumoniae K-2; assay: MIC by broth dilution (Table 8); assay type: cell-based; details: K2, 20 h, betalactamase producer, read-out: Minimum inhibitory concentration
Procedure: as §3, §4

Proteus mirabilis P-6 [18] = assay: MIC by broth dilution (Table 8); assay type: cell-based; details: P6, 20 h, resistant to kanamycin, gentamicin and tobramycin, read-out: Minimum inhibitory concentration
Procedure: as §3, §4

Proteus rettgeri P-7 [19] = assay: MIC by broth dilution (Table 8); assay type: cell-based; details: Providencia rettgeri, P7, 20 h, resistant to gentamicin and tobramycin, read-out: Minimum inhibitory concentration
Procedure: as §3, §4

Proteus sp. P-22 = assay: MIC by broth dilution (Table 8); assay type: cell-based; details: 20 h, read-out: Minimum inhibitory concentration
Procedure: as §3, §4

Proteus vulgaris P-5 [20] = assay: MIC by broth dilution (Table 8); assay type: cell-based; details: P5, 20 h, betalactamase producer, read-out: Minimum inhibitory concentration
Procedure: as §3, §4

Providencia sp. P-8 = assay: MIC by broth dilution (Table 8); assay type: cell-based; details: SP.P8, 20 h, resistant to kanamycin, gentamicin and tobramycin, read-out: Minimum inhibitory concentration
Procedure: as §3, §4

Serratia marcescens S-18 = assay: MIC by broth dilution (Table 8); assay type: cell-based; details: S18, 20 h, betalactamase producer, read-out: Minimum inhibitory concentration
Procedure: as §3, §4

`CCC1C(=O)N2C(C(=O)OC(c3ccccc3)(c3ccccc3)c3ccccc3)=C(SCCNC(C)=O)CC12` (single isomer, unassigned) [Trityl PS-5] gave an MIC ([1]; Alcaligenes faecalis B-326, read-out: MIC) of 1.25 mg/L (≈ 2.31 µM), an MIC (Citrobacter freundii E-9 [2]; Citrobacter freundii E-9, read-out: MIC) of 5 mg/L (≈ 9.25 µM) and an MIC ([3]; Diplococcus pneumoniae Type III, read-out: MIC) of 0.08 mg/L (≈ 0.148 µM). It also gave an MIC (Enterobacter sp. E-8 [4]; Enterobacter sp. E-8, read-out: MIC) of 10 mg/L (≈ 18.5 µM), an MIC (Escherichia coli K12) of 5.37 mg/L (≈ 9.93 µM) and an MIC ([5]; Klebsiella pneumoniae K-2, read-out: MIC) of 10.7 mg/L (≈ 19.8 µM). For the same molecule, the MIC (Proteus mirabilis P-6 [6]; Proteus mirabilis P-6, read-out: MIC) was 21.5 mg/L (≈ 39.8 µM), the MIC (Proteus rettgeri P-7 [7]; Proteus rettgeri P-7, read-out: MIC) was 10 mg/L (≈ 18.5 µM) and the MIC (Proteus vulgaris P-5 [8]; Proteus vulgaris P-5, read-out: MIC) was 21.5 mg/L (≈ 39.8 µM). The MIC ([9]; Pseudomonas aeruginosa P-1, read-out: MIC) was over 43 mg/L, the MIC (Sarcina lutea S-19; Sarcina lutea S-19, read-out: MIC) was 0.27 mg/L (≈ 0.499 µM) and the MIC ([10]; Staphylococcus aureus FDA 209p, read-out: MIC) was 0.17 mg/L (≈ 0.314 µM). The MIC ([11]; Staphylococcus aureus Smith, read-out: MIC) was 0.27 mg/L (≈ 0.499 µM), the MIC ([12]; Streptococcus pyogenes NY-5, read-out: MIC) was 0.17 mg/L (≈ 0.314 µM) and the “Deaths after intraperitoneal administration” value (“Deaths” for short) (male ddy mice; listed as trityl ester of the antibiotic PS-5, 500 mg/kg) was “did not provoke any dead”. The “Deaths” value (male ddy mice; listed as trityl ester, 500 mg/kg) was “does not provoke any dead”.

With `O=C(Cc1cccs1)N[C@@H]1C(=O)N2C(C(=O)[O-])=C(C[n+]3ccccc3)CS[C@H]12` [Cephaloridine, cephaloridine] the MIC (Citrobacter freundii E-9 [13]; Citrobacter freundii) was over 100 mg/L, the MIC [14] was over 100 mg/L and the MIC [15] was over 100 mg/L. It also gave an MIC (Enterobacter sp. E-8 [16]; Enterobacter) of 3.13 mg/L (≈ 7.53 µM), an MIC (Escherichia coli K 12; Escherichia coli) of 2.5 mg/L (≈ 6.02 µM) and an MIC [17] of 6.25 mg/L (≈ 15 µM). The MIC (Proteus mirabilis P-6 [18]) was 12.5 mg/L (≈ 30.1 µM), the MIC (Proteus rettgeri P-7 [19]) was 100 mg/L (≈ 241 µM) and the MIC (Proteus sp. P-22) was over 100 mg/L. It also gave an MIC (Proteus vulgaris P-5 [20]) of over 100 mg/L, an MIC (Providencia sp. P-8) of over 100 mg/L and an MIC (Serratia marcescens S-18) of over 100 mg/L. The MIC ([1]; Alcaligenes faecalis) was 6.25 mg/L (≈ 15 µM), the MIC (Citrobacter freundii E-9 [2]; Citrobacter freundii) was over 100 mg/L and the MIC [3] was 0.01 mg/L (≈ 0.0241 µM). The MIC (Enterobacter sp. E-8 [4]; Enterobacter) was over 100 mg/L, the MIC (Escherichia coli K12) was 2.5 mg/L (≈ 6.02 µM) and the MIC ([5]; Klebsiella pneumoniae) was 10 mg/L (≈ 24.1 µM). For the same molecule, the MIC (Proteus mirabilis P-6 [6]; Proteus mirabilis) was 10 mg/L (≈ 24.1 µM), the MIC (Proteus rettgeri P-7 [7]) was 50 mg/L (≈ 120 µM) and the MIC (Proteus vulgaris P-5 [8]; Proteus vulgaris) was over 20 mg/L. The MIC ([9]; Pseudomonas aeruginosa) was over 20 mg/L, the MIC (Sarcina lutea S-19) was 0.05 mg/L (≈ 0.12 µM) and the MIC ([10]; Staphylococcus aureus) was 0.04 mg/L (≈ 0.0963 µM). It also gave an MIC ([11]; Staphylococcus aureus) of 0.04 mg/L (≈ 0.0963 µM) and an MIC ([12]; Streptococcus pyogenes) of 0.01 mg/L (≈ 0.0241 µM).

`CCC1C(=O)N2C(C(=O)O)=C(SCCNC(C)=O)CC12` (single isomer, unassigned) [Antibiotic PS-5] showed an MIC (Citrobacter freundii E-9 [13]; Citrobacter freundii E-9, betalactamase producer) of 3.13 mg/L (≈ 10.5 µM), an MIC [14] of 6.25 mg/L (≈ 20.9 µM) and an MIC [15] of 12.5 mg/L (≈ 41.9 µM). The MIC (Enterobacter sp. E-8 [16]; Enterobacter sp. E-8, betalactamase producer) was 3.13 mg/L (≈ 10.5 µM), the MIC (Escherichia coli K 12; Escherichia coli K 12) was 2.5 mg/L (≈ 8.38 µM) and the MIC [17] was 3.13 mg/L (≈ 10.5 µM). It also gave an MIC (Proteus mirabilis P-6 [18]) of 6.25 mg/L (≈ 20.9 µM), an MIC (Proteus rettgeri P-7 [19]) of 3.13 mg/L (≈ 10.5 µM) and an MIC (Proteus sp. P-22; Proteus sp. P-22) of 6.25 mg/L (≈ 20.9 µM). For the same molecule, the MIC (Proteus vulgaris P-5 [20]) was 12.5 mg/L (≈ 41.9 µM), the MIC (Providencia sp. P-8) was 6.25 mg/L (≈ 20.9 µM) and the MIC (Serratia marcescens S-18) was 6.25 mg/L (≈ 20.9 µM). For the same molecule, the “Deaths” value (male ddy mice) was “does not provoke any dead”.
